Experimental data taken from PubChem BioAssay AID1552 (Sanford-Burnham Center for Chemical Genomics, 2009).
Calls of active or inactive are those of the source. No rule for the calls is given here.

Each compound was assayed against Ubiquitin-conjugating enzyme E2 N (Homo sapiens) (UniProt P61088) (assay: UBE2N binders by NMR, biophysical, purified protein (AID 1552)). Details: NMR binding to purified UBE2N.
Sequence of Ubiquitin-conjugating enzyme E2 N (Homo sapiens) (P61088 whole entry, looked up): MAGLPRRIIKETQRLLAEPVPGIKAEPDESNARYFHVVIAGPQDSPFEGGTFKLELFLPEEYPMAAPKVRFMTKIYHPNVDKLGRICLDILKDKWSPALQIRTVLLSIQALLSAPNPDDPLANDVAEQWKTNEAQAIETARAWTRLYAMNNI

Row | Compound | Kd
1 | CN1C2CCC1CC(OC(=O)C(CO)c1ccccc1)C2 (stereo not given) | > 4 mM (inactive)
2 | CC(O)C(=O)N/N=C/c1ccccc1 (stereo not given) | > 4 mM (inactive)
3 | Cc1cc(=O)[nH]c(NCC(=O)O)n1 | > 4 mM (inactive)
4 | CN1CCC(NC(=S)NC2CC2)CC1 | > 4 mM (inactive)
5 | O=C1C(=O)N(CN2CCN(CCO)CC2)c2ccccc21 | > 4 mM (inactive)
6 | Cc1ccc(-c2cc(C(=O)N3CCCC3)no2)cc1 | > 4 mM (inactive)
7 | COc1ccccc1-c1n[nH]c(=O)o1 | > 4 mM (inactive)
8 | CSc1nc(-c2ccco2)nn1S(C)(=O)=O | > 4 mM (inactive)
9 | CC(=O)Nc1ccc(S(=O)(=O)N2CCN=C2C)cc1 | > 4 mM (inactive)
10 | CN1CCN(c2ncnc3nc[nH]c23)CC1 | > 4 mM (inactive)
11 | CC1CC[C@]2(NC1)O[C@H]1CC3C4CC[C@H]5C[C@@H](O)CC[C@]5(C)C4CC[C@]3(C)[C@H]1[C@@H]2C (stereo not given in full) | > 4 mM (inactive)
12 | CC1(C)Cn2c(nnc2-c2ccccc2)S1 | > 4 mM (inactive)
13 | O=C(O)c1ccc(Nc2nncc(=O)[nH]2)cc1 | > 4 mM (inactive)
14 | CC(=O)N1CN(C(C)=O)CN(C(C)=O)C1 | > 4 mM (inactive)
15 | O=C1Nc2ccccc2C1(O)Cc1ccncc1 (stereo not given) | > 4 mM (inactive)
16 | O=c1ccc2ccccc2o1 | > 4 mM (inactive)
17 | Cc1cc(NC(=O)c2cccc(N3C(=O)CCC3=O)c2)no1 | > 4 mM (inactive)
18 | CSc1ccccc1NC(=O)c1ccc(C)o1 | > 4 mM (inactive)
19 | Cc1cc(NC(=O)c2ccccc2C(=O)O)no1 | > 4 mM (inactive)
20 | O=[n+]1cc(-c2ccccc2)n([O-])c2c1CCC2 | > 4 mM (inactive)
21 | COc1cc(C)c(S(=O)(=O)N2CCN(C)CC2)cc1C | > 4 mM (inactive)
22 | O=C(NCc1ccccc1)c1cnsn1 | > 4 mM (inactive)
23 | Oc1cccc(N2CCOCC2)c1 | > 4 mM (inactive)
24 | O=C1NCCCC1C(=O)N/N=C/c1ccccc1 (stereo not given) | > 4 mM (inactive)
25 | OCc1cccs1 | > 4 mM (inactive)

Row | Compound | Kd
26 | CC(=O)O[C@@H]1CC2C(C)(C)C(=O)C3OC3[C@]2(C)C2CC[C@@]3(C)[C@H](c4ccoc4)OC(=O)C4OC43[C@@]21C (stereo not given in full) | > 4 mM (inactive)
27 | Cc1ccc2cc(N)ccc2n1 | > 4 mM (inactive)
28 | N/C(=N/O)C1COc2ccccc2O1 (stereo not given) | > 4 mM (inactive)
29 | CCc1cc(=O)[nH]c(SCC(=O)NCCOC)n1 | > 4 mM (inactive)
30 | C=CC(C1=CC(=O)C(OC)=CC1=O)c1ccc(O)cc1 (stereo not given) | > 4 mM (inactive)
31 | CN1C(=O)CC(=O)N(C)c2ccccc21 | > 4 mM (inactive)
32 | Cc1cccc(CO)n1 | > 4 mM (inactive)
33 | c1ccc(SCc2nc(-c3cccnc3)no2)cc1 | > 4 mM (inactive)
34 | Nc1ncnc2c1ncn2[C@@H]1O[C@H](CO)[C@@H](O)[C@H]1O | > 4 mM (inactive)
35 | NC(=O)c1ccc(NC(=O)c2ccco2)cc1 | > 4 mM (inactive)
36 | CC(=O)c1ccc(NS(=O)(=O)c2cccc(C)c2)cc1 | > 4 mM (inactive)
37 | CC1(C)N=C2C(=N)C=CC=C2N1O | > 4 mM (inactive)
38 | COc1ccc2nc(NC(=O)c3cnccn3)sc2c1 | > 4 mM (inactive)
39 | O=C(CSc1ncccn1)Nc1nccs1 | > 4 mM (inactive)
40 | CC1CCN(C(=S)c2ccccc2O)CC1 | > 4 mM (inactive)
41 | Cc1cc(C)nc(N(C#N)Cc2ccccc2)n1 | > 4 mM (inactive)
42 | NC(Cn1ccc(=O)c(O)c1)C(=O)O (stereo not given) | > 4 mM (inactive)
43 | NC(=O)C1(c2ccccc2)CCOCC1 | > 4 mM (inactive)
44 | Cn1c(=O)[nH]c2nc[nH]c2c1=O | > 4 mM (inactive)
45 | CC1CCN(C(=O)c2cc3ccccc3o2)CC1 | > 4 mM (inactive)
46 | Cc1ccc(S(=O)(=O)CC(=O)N(C)C)cc1 | > 4 mM (inactive)
47 | CC(=O)CC(=O)N1C(O)CC[N+]1(C)C (stereo not given) | > 4 mM (inactive)
48 | Nc1ncnc2c1ncn2C1C[C@H](O)[C@@H](CO)O1 (stereo not given in full) | > 4 mM (inactive)
49 | CC1=CC(C)C(C(=O)O)C(C(=O)N2CCN(C)CC2)C1 (stereo not given) | > 4 mM (inactive)
50 | Brc1cccc(-c2nnco2)c1 | > 4 mM (inactive)

Row | Compound | Kd
51 | Cc1ccc(=O)[nH]c1 | > 4 mM (inactive)
52 | NCc1ccc2c(c1)CCO2 | > 4 mM (inactive)
53 | O=C(O)CSc1cccc2cccnc12 | > 4 mM (inactive)
54 | Cc1cccc(OCc2nnc(N)s2)c1 | > 4 mM (inactive)
55 | CC(=O)NC(O)C(=O)c1ccccc1 (stereo not given) | > 4 mM (inactive)
56 | CSc1nc(-c2ccccc2)ccc1C(N)=O | > 4 mM (inactive)
57 | Cc1cc(=O)oc2cc3c(cc12)OCCO3 | > 4 mM (inactive)
58 | C=C1CSc2nc(=O)c3c(C)c(C)sc3n21 | > 4 mM (inactive)
59 | COc1c(C)c2c(c(O)c1C/C=C(\C)CCC(=O)O)C(=O)OC2 | > 4 mM (inactive)
60 | COc1ccc(C2=CC(=O)C=CC2=O)cc1 | > 4 mM (inactive)
61 | O=S(=O)(c1ccc(F)c(Cl)c1)N1CCCC1 | > 4 mM (inactive)
62 | CN1CCC(N2CCOCC2)CC1 | > 4 mM (inactive)
63 | O=c1cc(-c2ccc(O)cc2)oc2cc(O)cc(O)c12 | > 4 mM (inactive)
64 | Cc1scc(C(=O)Nn2cnnc2)c1-c1ccccc1 | > 4 mM (inactive)
65 | Cc1ccc(C(=O)Nc2c[nH]c(=O)[nH]c2=O)cc1 | > 4 mM (inactive)
66 | Nc1nc2ncc(=O)[nH]c2c(=O)[nH]1 | > 4 mM (inactive)
67 | CCCn1cnc2sc(C(N)=O)c(C)c2c1=O | > 4 mM (inactive)
68 | CC(C)=CC(=O)Nc1ccccc1C(N)=O | > 4 mM (inactive)
69 | Nc1scc[n+]1CC(=O)[O-] | > 4 mM (inactive)
70 | O=C(c1ccc(F)cc1)N1CCN(c2ncccn2)CC1 | > 4 mM (inactive)
71 | O=C(c1cnsn1)N1CCN(c2ccccn2)CC1 | > 4 mM (inactive)
72 | O=C(NCc1ccccc1Br)c1ccco1 | > 4 mM (inactive)
73 | Cc1cc(C(=O)NC2=NCCS2)cs1 | > 4 mM (inactive)
74 | Cn1cnc2ccc([N+](=O)[O-])cc2c1=O | > 4 mM (inactive)
75 | Cc1occc1C(=O)Nc1cc(C(C)(C)C)on1 | > 4 mM (inactive)

Row | Compound | Kd
76 | Nc1c(S(=O)(=O)c2ccccc2)csc1C(=O)O | > 4 mM (inactive)
77 | Nc1nsc(-c2ccccc2)n1 | > 4 mM (inactive)
78 | O=C1OCCC1Sc1nc2ccccc2c(=O)[nH]1 (stereo not given) | > 4 mM (inactive)
79 | NC(CC(=O)O)C(=O)Nc1ccc(Cl)cc1 (stereo not given) | > 4 mM (inactive)
80 | Fc1cc2nccnc2cc1N1CCSCC1 | > 4 mM (inactive)
81 | Cc1cc(=O)n2[nH]c(C)cc2n1 | > 4 mM (inactive)
82 | Cn1nnc2cc(C(=O)O)ccc21 | > 4 mM (inactive)
83 | CCOC(=O)C1C(=O)C2CCN1CC2 (stereo not given) | > 4 mM (inactive)
84 | Nc1nc(-c2cccnc2)nn1C(=O)Cc1ccccc1 | > 4 mM (inactive)
85 | CC1O[C@@H](Oc2c(-c3ccc(O)c(O)c3)oc3cc(O)cc(O)c3c2=O)[C@H](O)[C@H](O)[C@H]1O (stereo not given in full) | > 4 mM (inactive)
86 | COC(=O)c1ccc(Cl)c(NC(C)=O)c1 | > 4 mM (inactive)
87 | O=C(Nc1ccc2c(c1)CCC2)c1cnccn1 | > 4 mM (inactive)
88 | O=c1[nH]nc(Cc2ccncc2)c2ccccc12 | > 4 mM (inactive)
89 | CC(=O)OCC[C@H](C)CCC=C(C)C | > 4 mM (inactive)
90 | Cc1cc(C)nc(/N=C(/N)N2CCC(C(N)=O)CC2)n1 | > 4 mM (inactive)
91 | c1ccc2[nH]c(SCc3cscn3)nc2c1 | > 4 mM (inactive)
92 | NC(=O)c1ccc(N2CCCCC2)c(N)c1 | > 4 mM (inactive)
93 | C[C@@H]1CC[C@@]2(NC1)O[C@H]1C[C@H]3C4CC=C5C[C@@H](O)CC[C@]5(C)C4CC[C@]3(C)C1[C@@H]2C (stereo not given in full) | > 4 mM (inactive)
94 | S=c1[nH]c2cccnc2[nH]1 | > 4 mM (inactive)
95 | O=C1CN2C(=N1)N(Cc1ccccc1)c1ccccc12 | > 4 mM (inactive)
96 | O=C(NCc1ccccn1)c1ccccc1Cl | > 4 mM (inactive)
97 | CCCCCC/C=C\CCCCCCCc1cccc(O)c1C(=O)O | > 4 mM (inactive)
98 | Cc1c(N=Cc2ccco2)c(=O)n(-c2ccccc2)n1C | > 4 mM (inactive)
99 | Cc1nnsc1C(=O)Nc1ccccc1[N+](=O)[O-] | > 4 mM (inactive)
100 | Nc1ccc(CN2CCOCC2)cc1 | > 4 mM (inactive)

Row | Compound | Kd
101 | CNC(=S)N1CCN(C(=O)c2ccco2)CC1 | > 4 mM (inactive)
102 | CC[C@H]1CN2CCc3cc(OC)c(OC)cc3C2C[C@@H]1CC1NCCc2cc(OC)c(OC)cc21 (stereo not given in full) | > 4 mM (inactive)
103 | Nc1ccc(-n2cncn2)cc1 | > 4 mM (inactive)
104 | NC1=NC(=O)C(Cc2ccccc2)S1 (stereo not given) | > 4 mM (inactive)
105 | CSc1nc(=O)[nH]c2c1CCC2 | > 4 mM (inactive)
106 | NC(=O)Cn1cnc(-c2ccc(F)cc2)c1 | > 4 mM (inactive)
107 | CCCNC(=O)CSc1nnc(C)s1 | > 4 mM (inactive)
108 | COc1c2c(cc3c1OCO3)C13C=C[C@H](OC)CC1N(C2)CC3O (stereo not given in full) | > 4 mM (inactive)
109 | CC1CN=C(Nc2ccccc2)S1 (stereo not given) | > 4 mM (inactive)
110 | NCc1ccc2c(c1)OCO2 | > 4 mM (inactive)
111 | O=C(O)Cn1cnc2ccccc2c1=O | > 4 mM (inactive)
112 | CC(C)Nc1nc2n(c(=O)n1)CCN2C(C)C | > 4 mM (inactive)
113 | OCC1CCCN2CCCCC12 (stereo not given) | > 4 mM (inactive)
114 | CC(=O)CC1CCCCN1 (stereo not given) | > 4 mM (inactive)
115 | Nc1ccc(S(=O)(=O)Nc2nccs2)cc1 | > 4 mM (inactive)
116 | CC[C@]12CCCN3CCc4c(n(c5ccccc45)[C@](O)(C(=O)OC)C1)[C@@H]32 | > 4 mM (inactive)
117 | O=C(O)C1CCN(C(=O)c2cccs2)CC1 | > 4 mM (inactive)
118 | O=C1CSC(=S)N1Cc1cccnc1 | > 4 mM (inactive)
119 | COc1ccc(NC(=O)/C=N/O)cc1 | > 4 mM (inactive)
120 | COc1c(O)cccc1O | > 4 mM (inactive)
121 | Cc1ccc(NC(=O)/C=C2\SC(=O)NC2=O)cc1 | > 4 mM (inactive)
122 | O=C(NN1CCOCC1)c1cccs1 | > 4 mM (inactive)
123 | O=C(O)c1cncc(-c2ccccc2)c1 | > 4 mM (inactive)
124 | CCNCC(O)c1ccc([N+](=O)[O-])cc1 (stereo not given) | > 4 mM (inactive)
125 | COC(=O)c1cccc2cc[nH]c12 | > 4 mM (inactive)
